Numbered stars: 1 amine (or outer) side, 2 acyl side, 3 side chain; on linkers, the order of the positions; unused ones are H or OH. Bridge positions count the residues as written; N and C are the ends. Square brackets hold non-standard residues; d marks the D form. Peptide text beside a SMILES is read from it. I, II: the chains in the order shown. Actinocin(9to1) = Cc1c2oc3c(C)ccc(C(=O)[*:1])c3nc-2c(C(=O)[*:2])c(N)c1=O; NMeV = CN[C@H](C(=O)O)C(C)C; Sar = CNCC(=O)O

Results on three compounds are retold here after patent US4297276A, “Thymosin beta 3 and beta 4” (Hoffman-La Roche Inc., priority 1980, dated 1981).

Data set [1] can be described thus: Isoelectric focusing (isoelectric point). It is filed as physicochemical. The protocol:
Isoelectric focusing was conducted for 90 minutes using a constant power of 25 watts (LKB Model 2103 power supply). The gels were fixed in 20% trichloroacetic acid for one hour. They were stained in 0.1% Coomassie Blue in 20% trichloroacetic acid and destained in 10% trichloroacetic acid.

The subject of data set [2] is terminal deoxynucleotidyl transferase (TdT). Put plainly: In vivo TdT assay in thymocytes from hydrocortisone acetate treated C57BL/6J mice. The note with it: for TdT specific activity: daily for 9 to 11 days, thymocytes. Here is the method: (§1) The procedure for enzyme extraction has been described previously by Pazmino et al., J. Immunol. 119, 494 (1977).
(§2) The TdT assay was adapted from Kung et al, J. Exp. Med. 141, 855 (1975). One unit of enzyme activity was defined as the amount catalyzing the incorporation of 1 pmol of dGTP into acid insoluble material per hour. The specific activity was calculated from the total enzyme activity recovered from phosphocellulose per 10^8 nucleated viable cells.
Thymosin activity was also tested by a in vivo TdT assay. Different doses of thymosin fraction 5 and other purified thymosin polypeptides were injected into hydrocortisone acetate treated C57BL/6J mice daily for 9 to 11 days. The animals were sacrificed, thymocytes prepared and TdT activity determined using the method described by Pazmino et al., J. Immunol. 119, 494 (1977). […]

The test system is the same in data set [3]. Description: In vitro induction of TdT in fraction B bone marrow cells from NIH Swiss nu/nu mice. It counts as cell-based. To be noted: for TdT induction relative to the thymosin fraction 5 level: BSA fraction B from bone marrow; for TdT specific activity: peak I activity only, incubation 18 hours with 50 ng/ml.
Source text: The method of Raidt et al., J. Exp. Med. 128, 681 (1968) was used to fractionate different cell suspensions from spleen, thymus, lymph nodes or bone marrow. Four layers of cells were formed at the interfaces of the discontinuous BSA gradient: Fraction A between 10% and 23% BSA; fraction B between 23-26%; fraction C between 26-29%; and fraction D between 29-33% BSA. BSA (Path-O-Cyte 5, lots 25 and 26) was obtained from Miles Research Products (Elkhart, Ind.). Fractionated cells were washed three times in Ham's F-12 medium.
as §1, §2
Ten daily injections of 100 μg were given intraperitoneally to six-week-old NIH Swiss nu/nu, which were sacrificed 24 hours after the last injection. For the in vitro induction experiments, cells were washed three times after BSA gradient fractionation in Ham's F-12 medium containing 100 U/ml penicillin, 100 μg/ml streptomycin and 10 μg/ml gentomycin. After being washed, cell concentrations were adjusted to 1×10^8 cells/dish in 20 ml of Ham's F-12 medium containing antibiotics, 5% fetal bovine serum (Flow Laboratories, Rockville, Md.) and different concentrations of thymosin or spleen fraction 5 or of any of the different peptides isolated from thymosin. After incubation for various periods of time, cells were collected, washed twice with Ham's F-12 and extracted as previously described for TdT activity.
The following peptides, isolated from thymosin, were assayed for their ability to induce TdT in vitro: α1, β1, β3, β4, and synthetic α-1.
(§3) Actinomycin D at 0.5 μg/ml was incubated for 12 hours in the presence of thymosin with fraction B from the bone marrow of NIH Swiss nu/nu mice to study their effect on TdT induction. To follow the effect of Actinomycin D on RNA synthesis, cells were labeled with [^3 H] uridine (10 μCi/ml) for the last 90 minutes of incubation.

In data set [4] the test system is TdT positive cells in T-cell populations. The note with it: partially purified peptides; Low and Goldstein 1978; cited from earlier work.
The next data set has as its system RNA synthesis. Description: Effect of Actinomycin D on RNA synthesis ([3H] uridine labeling) in fraction B bone marrow cells. It counts as cell-based, mice. To be noted: 0.5 μg/ml, 12 hours, in the presence of thymosin. The protocol:
as §3

Setting [5] is: FIG. 3, bone marrow fraction B cells.

Consider Thymosin β3, for which the “isoelectric point (pI)” value in data set [1] stood at 5.2. For the same compound, the “TdT specific activity” value in data set [2] (1 μg/infection) is listed as 2758.6 p moles (3HdGTP/30 min/10^8 ce. For the same compound, in data set [2] (10 μg/infection), the “TdT specific activity” value is listed as 2954.3 p moles (3HdGTP/30 min/10^8 ce. Further, the “activity in inducing TdT in vivo compared with thymosin fraction 5” value in data set [2] (One μg of β3 vs 100 μg of thymosin fraction 5) is given as “as active in inducing TdT in vivo as 100 μg of thymosin fraction 5”. Moreover, in data set [3], the “shape of TdT dose response” value is on record as “increases as the doses increase”, the “TdT induction relative to the thymosin fraction 5 level” value was approximately 80% and the TdT specific activity is reported as 145.0 picomoles 3HdGTP/hour/10^8 cel. Moreover, in data set [3] (setting [5]), the “concentration with significant TdT induction” value turned out to be 1 ng/mL and the “optimal concentration for TdT induction” value stood at 10 ng/mL. For the same compound, the “effect on TdT induction at higher concentrations” value in data set [3] (FIG. 3, β3 even at 500 ng/ml) is on record as “no inhibition of induction was observed”. Also, the “induction of TdT positive cells in T-cell populations” value in data set [4] was “induce TdT positive cells”.
As to `Cc1c2oc3c(C)ccc(C(=O)N[C@@H]4C(=O)N[C@H](C(C)C)C(=O)N5CCC[C@H]5C(=O)N(C)CC(=O)N(C)[C@@H](C(C)C)C(=O)O[C@@H]4C)c3nc-2c(C(=O)N[C@@H]2C(=O)N[C@H](C(C)C)C(=O)N3CCC[C@H]3C(=O)N(C)CC(=O)N(C)[C@@H](C(C)C)C(=O)O[C@@H]2C)c(N)c1=O` [actinomycin D, Actinomycin D, reference compound] (I: T[dV]P[Sar][NMeV] / II: T[dV]P[Sar][NMeV]; ester I:1-I:C, II:1-II:C; linker I:N-II:N via Actinocin(9to1)), the “inhibition of RNA synthesis” value in the data set on RNA synthesis is listed as “greater than 95%”. In data set [3] (0.5 μg/ml actinomycin D, 12 hours, in the presence of thymosin), the “effect on induction of TdT by thymosin” value is listed as “inhibited, as is the induction of TdT”.
Thymosin β4: in data set [1], the “isoelectric point (pI)” value worked out at 5.1. For the same compound, in data set [3], the “shape of TdT dose response” value was “increases as the doses increase”, the “TdT induction relative to the thymosin fraction 5 level” value is 30% and the TdT specific activity is listed as 58.0 picomoles 3HdGTP/hour/10^8 cel. Further, in data set [4], the “induction of TdT positive cells in T-cell populations” value was “induce TdT positive cells”.
